Columns and labels:
[1] = molecular target: Mast/stem cell growth factor receptor Kit (Homo sapiens) (UniProt P10721); conditions: Compound concentration 1000.0 nM
[2] = test system: Tyrosine-protein kinase ABL1 (Homo sapiens), P00519 [Y253F]; conditions: Compound concentration 1000.0 nM
[3] = molecular target: Dual specificity protein kinase CLK1 (Homo sapiens) (UniProt P49759); conditions: Compound concentration 1000.0 nM
[4] = molecular target: Cyclin-G-associated kinase (Homo sapiens) (UniProt O14976); conditions: Compound concentration 1000.0 nM
[5] = molecular target: Mitogen-activated protein kinase kinase kinase 5 (Homo sapiens) (UniProt Q99683); conditions: Compound concentration 1000.0 nM
[6] = molecular target: Activated CDC42 kinase 1 (Homo sapiens) (UniProt Q07912); conditions: Compound concentration 1000.0 nM
[7] = species: Rattus norvegicus; conditions: Compound concentration 10.0 uM
[8] = molecular target: Receptor-interacting serine/threonine-protein kinase 1 (Homo sapiens) (UniProt Q13546); conditions: Compound concentration 1000.0 nM
[9] = molecular target: T1, 5-hydroxytryptamine receptor 1A (Homo sapiens) (UniProt P08908); conditions: Compound concentration 10.0 uM
T1 sequence (whole entry): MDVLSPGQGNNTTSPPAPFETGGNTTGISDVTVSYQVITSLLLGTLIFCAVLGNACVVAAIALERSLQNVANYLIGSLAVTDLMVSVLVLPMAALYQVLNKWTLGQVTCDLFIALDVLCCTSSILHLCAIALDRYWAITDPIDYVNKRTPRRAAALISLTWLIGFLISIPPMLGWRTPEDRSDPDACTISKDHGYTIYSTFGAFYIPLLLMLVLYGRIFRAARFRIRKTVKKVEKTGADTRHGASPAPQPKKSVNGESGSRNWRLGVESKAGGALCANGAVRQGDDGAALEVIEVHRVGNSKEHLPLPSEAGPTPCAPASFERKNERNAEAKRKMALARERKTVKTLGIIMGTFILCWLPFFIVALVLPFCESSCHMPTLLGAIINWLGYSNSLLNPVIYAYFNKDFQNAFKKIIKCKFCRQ

[10] = molecular target: Fibroblast growth factor receptor 4 (Homo sapiens) (UniProt P22455); conditions: Compound concentration 1000.0 nM
[11] = molecular target: Receptor-type tyrosine-protein kinase FLT3 (Homo sapiens) (UniProt P36888); conditions: Compound concentration 1000.0 nM
[12] = molecular target: Ephrin type-A receptor 7 (Homo sapiens) (UniProt Q15375); conditions: Compound concentration 1000.0 nM
[13] = molecular target: Homeodomain-interacting protein kinase 3 (Homo sapiens) (UniProt Q9H422); conditions: Compound concentration 1000.0 nM
[14] = molecular target: Protein-tyrosine kinase 6 (Homo sapiens) (UniProt Q13882); conditions: Compound concentration 1000.0 nM
[15] = test system: Serine/threonine-protein kinase B-raf (Homo sapiens), P15056 [V600E]; conditions: Compound concentration 1000.0 nM
[16] = molecular target: Serine/threonine-protein kinase WNK2 (Homo sapiens) (UniProt Q9Y3S1); conditions: Compound concentration 1000.0 nM
[17] = molecular target: Ribosomal protein S6 kinase alpha-2 (Homo sapiens) (UniProt Q15349); conditions: Compound concentration 1000.0 nM
[18] = molecular target: Cyclin-dependent kinase-like 5 (Homo sapiens) (UniProt O76039); conditions: Compound concentration 1000.0 nM
[19] = molecular target: Serine/threonine-protein kinase RIO1 (Homo sapiens) (UniProt Q9BRS2); conditions: Compound concentration 1000.0 nM
[20] = molecular target: Tyrosine-protein kinase ITK/TSK (Homo sapiens) (UniProt Q08881); conditions: Compound concentration 1000.0 nM
[21] = test system: Tyrosine-protein kinase ABL1 (Homo sapiens), P00519 [T315I]; conditions: Compound concentration 1000.0 nM
[22] = molecular target: Beta-1 adrenergic receptor (Homo sapiens) (UniProt P08588); conditions: Compound concentration 10.0 uM
[23] = test system: Tyrosine-protein kinase ABL1 (Homo sapiens), P00519 [H396P]; conditions: Compound concentration 1000.0 nM
[24] = molecular target: Serine/threonine-protein kinase MARK2 (Homo sapiens) (UniProt Q7KZI7); conditions: Compound concentration 1000.0 nM
[25] = molecular target: Myotonin-protein kinase (Homo sapiens) (UniProt Q09013); conditions: Compound concentration 1000.0 nM
[26] = molecular target: Calcium-dependent protein kinase 1 (Plasmodium falciparum) (UniProt P62344); conditions: Compound concentration 1000.0 nM
[27] = molecular target: Mitogen-activated protein kinase kinase kinase kinase 4 (Homo sapiens) (UniProt O95819); conditions: Compound concentration 1000.0 nM
[28] = molecular target: Glycogen synthase kinase-3 beta (Homo sapiens) (UniProt P49841); conditions: Compound concentration 1000.0 nM
[29] = molecular target: Rhodopsin kinase GRK7 (Homo sapiens) (UniProt Q8WTQ7); conditions: Compound concentration 1000.0 nM
[30] = molecular target: Mitogen-activated protein kinase 10 (Homo sapiens) (UniProt P53779); conditions: Compound concentration 1000.0 nM
[31] = molecular target: Calcium/calmodulin-dependent protein kinase type 1D (Homo sapiens) (UniProt Q8IU85); conditions: Compound concentration 1000.0 nM
[32] = molecular target: cAMP-dependent protein kinase catalytic subunit beta (Homo sapiens) (UniProt P22694); conditions: Compound concentration 1000.0 nM
[33] = molecular target: Ephrin type-B receptor 3 (Homo sapiens) (UniProt P54753); conditions: Compound concentration 1000.0 nM
[34] = molecular target: Cyclin-dependent kinase 4 (Homo sapiens) (UniProt P11802); conditions: Compound concentration 1000.0 nM
[35] = molecular target: Cyclin-dependent kinase 15 (Homo sapiens) (UniProt Q96Q40); conditions: Compound concentration 1000.0 nM

Ephrin type-A receptor 7 (Homo sapiens), sequence (Q15375 28-998 limits assumed): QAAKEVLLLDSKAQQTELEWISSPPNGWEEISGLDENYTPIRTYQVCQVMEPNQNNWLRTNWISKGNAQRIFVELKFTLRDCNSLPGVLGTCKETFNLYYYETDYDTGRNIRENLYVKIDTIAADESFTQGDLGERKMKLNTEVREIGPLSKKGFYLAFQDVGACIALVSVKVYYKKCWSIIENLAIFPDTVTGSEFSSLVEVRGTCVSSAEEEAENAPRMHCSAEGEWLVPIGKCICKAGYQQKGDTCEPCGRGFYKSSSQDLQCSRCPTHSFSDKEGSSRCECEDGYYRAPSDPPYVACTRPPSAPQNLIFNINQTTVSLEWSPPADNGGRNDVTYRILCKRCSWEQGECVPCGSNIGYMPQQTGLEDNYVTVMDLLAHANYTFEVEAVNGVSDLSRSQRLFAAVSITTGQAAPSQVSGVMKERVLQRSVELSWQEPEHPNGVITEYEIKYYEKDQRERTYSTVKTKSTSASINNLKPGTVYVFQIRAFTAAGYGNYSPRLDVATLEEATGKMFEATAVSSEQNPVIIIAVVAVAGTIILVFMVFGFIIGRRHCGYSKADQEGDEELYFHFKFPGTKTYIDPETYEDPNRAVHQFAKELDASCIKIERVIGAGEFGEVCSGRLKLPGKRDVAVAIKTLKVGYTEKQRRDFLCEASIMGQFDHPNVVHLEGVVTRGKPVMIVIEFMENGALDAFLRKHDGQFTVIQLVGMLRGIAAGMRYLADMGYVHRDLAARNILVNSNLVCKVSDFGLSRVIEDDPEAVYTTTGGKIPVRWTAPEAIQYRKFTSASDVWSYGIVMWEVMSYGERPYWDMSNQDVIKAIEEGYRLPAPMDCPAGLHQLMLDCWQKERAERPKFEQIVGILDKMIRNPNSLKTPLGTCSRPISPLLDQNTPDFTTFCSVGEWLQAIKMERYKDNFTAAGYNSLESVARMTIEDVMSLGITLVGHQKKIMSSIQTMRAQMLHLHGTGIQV
Ribosomal protein S6 kinase alpha-2 (Homo sapiens), sequence (Q15349 whole entry): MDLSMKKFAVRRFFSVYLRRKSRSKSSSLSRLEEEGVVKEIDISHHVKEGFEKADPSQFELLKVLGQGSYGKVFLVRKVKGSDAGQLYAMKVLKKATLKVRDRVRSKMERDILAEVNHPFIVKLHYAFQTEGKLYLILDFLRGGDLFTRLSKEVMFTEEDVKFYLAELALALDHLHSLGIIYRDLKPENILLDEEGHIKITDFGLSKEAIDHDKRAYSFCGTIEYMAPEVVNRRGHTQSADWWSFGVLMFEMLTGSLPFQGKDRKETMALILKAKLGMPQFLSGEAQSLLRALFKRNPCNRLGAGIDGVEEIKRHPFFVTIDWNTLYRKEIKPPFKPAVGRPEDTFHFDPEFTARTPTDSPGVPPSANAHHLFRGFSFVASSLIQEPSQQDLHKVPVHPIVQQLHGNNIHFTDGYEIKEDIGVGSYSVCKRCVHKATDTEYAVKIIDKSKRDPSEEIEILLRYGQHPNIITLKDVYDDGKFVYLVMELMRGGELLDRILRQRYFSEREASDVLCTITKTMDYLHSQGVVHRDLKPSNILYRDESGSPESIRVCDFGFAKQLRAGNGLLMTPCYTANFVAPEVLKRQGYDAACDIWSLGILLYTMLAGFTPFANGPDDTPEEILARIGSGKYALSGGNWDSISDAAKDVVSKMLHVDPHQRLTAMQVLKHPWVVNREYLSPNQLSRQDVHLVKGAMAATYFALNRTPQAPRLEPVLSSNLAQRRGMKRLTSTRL
Cyclin-dependent kinase-like 5 (Homo sapiens), sequence (O76039 whole entry): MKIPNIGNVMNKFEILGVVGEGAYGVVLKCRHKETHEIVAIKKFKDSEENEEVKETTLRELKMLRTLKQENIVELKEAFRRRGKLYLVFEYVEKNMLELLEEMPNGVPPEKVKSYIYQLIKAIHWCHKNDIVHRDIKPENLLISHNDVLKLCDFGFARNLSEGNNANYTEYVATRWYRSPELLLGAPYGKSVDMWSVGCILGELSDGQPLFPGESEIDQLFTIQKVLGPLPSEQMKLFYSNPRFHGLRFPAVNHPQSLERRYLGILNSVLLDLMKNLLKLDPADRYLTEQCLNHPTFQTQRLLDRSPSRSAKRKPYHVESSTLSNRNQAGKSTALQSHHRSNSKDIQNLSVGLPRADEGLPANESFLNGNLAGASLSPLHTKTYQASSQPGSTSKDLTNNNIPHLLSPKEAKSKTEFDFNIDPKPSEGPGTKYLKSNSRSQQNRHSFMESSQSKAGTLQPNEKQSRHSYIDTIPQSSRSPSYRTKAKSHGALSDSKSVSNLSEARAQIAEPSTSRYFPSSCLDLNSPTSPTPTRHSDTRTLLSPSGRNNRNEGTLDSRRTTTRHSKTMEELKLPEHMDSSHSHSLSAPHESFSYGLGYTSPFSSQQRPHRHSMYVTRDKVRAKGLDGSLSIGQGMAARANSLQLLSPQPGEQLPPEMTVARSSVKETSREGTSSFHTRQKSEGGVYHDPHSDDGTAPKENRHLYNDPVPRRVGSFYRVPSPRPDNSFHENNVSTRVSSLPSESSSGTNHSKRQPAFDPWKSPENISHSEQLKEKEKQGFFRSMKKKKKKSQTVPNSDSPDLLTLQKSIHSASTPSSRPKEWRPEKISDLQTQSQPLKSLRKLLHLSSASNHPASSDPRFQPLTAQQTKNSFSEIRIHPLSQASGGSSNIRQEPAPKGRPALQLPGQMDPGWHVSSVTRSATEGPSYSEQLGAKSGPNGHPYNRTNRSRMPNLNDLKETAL
Serine/threonine-protein kinase RIO1 (Homo sapiens), sequence (Q9BRS2 whole entry): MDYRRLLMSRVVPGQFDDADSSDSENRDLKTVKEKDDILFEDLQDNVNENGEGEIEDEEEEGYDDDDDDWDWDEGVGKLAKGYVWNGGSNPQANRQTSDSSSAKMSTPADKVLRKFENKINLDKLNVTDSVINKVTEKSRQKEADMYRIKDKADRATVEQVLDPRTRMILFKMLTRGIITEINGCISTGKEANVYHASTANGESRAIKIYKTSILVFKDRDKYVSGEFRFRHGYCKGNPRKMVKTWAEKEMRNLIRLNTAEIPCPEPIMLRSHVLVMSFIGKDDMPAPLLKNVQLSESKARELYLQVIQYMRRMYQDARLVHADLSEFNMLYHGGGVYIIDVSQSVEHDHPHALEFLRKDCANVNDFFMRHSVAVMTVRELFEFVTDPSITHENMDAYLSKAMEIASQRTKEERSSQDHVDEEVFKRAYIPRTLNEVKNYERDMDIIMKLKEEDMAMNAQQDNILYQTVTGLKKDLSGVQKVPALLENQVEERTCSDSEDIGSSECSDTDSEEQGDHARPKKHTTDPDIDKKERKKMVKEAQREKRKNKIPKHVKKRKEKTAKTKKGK
Calcium/calmodulin-dependent protein kinase type 1D (Homo sapiens), sequence (Q8IU85 whole entry, looked up): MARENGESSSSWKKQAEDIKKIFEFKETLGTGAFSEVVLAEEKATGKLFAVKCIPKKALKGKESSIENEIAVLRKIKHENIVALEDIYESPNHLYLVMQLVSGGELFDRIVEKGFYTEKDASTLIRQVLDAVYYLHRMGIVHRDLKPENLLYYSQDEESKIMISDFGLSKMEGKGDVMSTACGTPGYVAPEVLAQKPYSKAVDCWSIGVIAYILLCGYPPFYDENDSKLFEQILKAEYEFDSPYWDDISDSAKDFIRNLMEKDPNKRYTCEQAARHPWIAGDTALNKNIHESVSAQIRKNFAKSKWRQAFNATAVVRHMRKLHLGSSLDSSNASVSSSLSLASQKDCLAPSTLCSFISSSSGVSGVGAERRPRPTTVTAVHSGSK
Cyclin-G-associated kinase (Homo sapiens), sequence (O14976 whole entry): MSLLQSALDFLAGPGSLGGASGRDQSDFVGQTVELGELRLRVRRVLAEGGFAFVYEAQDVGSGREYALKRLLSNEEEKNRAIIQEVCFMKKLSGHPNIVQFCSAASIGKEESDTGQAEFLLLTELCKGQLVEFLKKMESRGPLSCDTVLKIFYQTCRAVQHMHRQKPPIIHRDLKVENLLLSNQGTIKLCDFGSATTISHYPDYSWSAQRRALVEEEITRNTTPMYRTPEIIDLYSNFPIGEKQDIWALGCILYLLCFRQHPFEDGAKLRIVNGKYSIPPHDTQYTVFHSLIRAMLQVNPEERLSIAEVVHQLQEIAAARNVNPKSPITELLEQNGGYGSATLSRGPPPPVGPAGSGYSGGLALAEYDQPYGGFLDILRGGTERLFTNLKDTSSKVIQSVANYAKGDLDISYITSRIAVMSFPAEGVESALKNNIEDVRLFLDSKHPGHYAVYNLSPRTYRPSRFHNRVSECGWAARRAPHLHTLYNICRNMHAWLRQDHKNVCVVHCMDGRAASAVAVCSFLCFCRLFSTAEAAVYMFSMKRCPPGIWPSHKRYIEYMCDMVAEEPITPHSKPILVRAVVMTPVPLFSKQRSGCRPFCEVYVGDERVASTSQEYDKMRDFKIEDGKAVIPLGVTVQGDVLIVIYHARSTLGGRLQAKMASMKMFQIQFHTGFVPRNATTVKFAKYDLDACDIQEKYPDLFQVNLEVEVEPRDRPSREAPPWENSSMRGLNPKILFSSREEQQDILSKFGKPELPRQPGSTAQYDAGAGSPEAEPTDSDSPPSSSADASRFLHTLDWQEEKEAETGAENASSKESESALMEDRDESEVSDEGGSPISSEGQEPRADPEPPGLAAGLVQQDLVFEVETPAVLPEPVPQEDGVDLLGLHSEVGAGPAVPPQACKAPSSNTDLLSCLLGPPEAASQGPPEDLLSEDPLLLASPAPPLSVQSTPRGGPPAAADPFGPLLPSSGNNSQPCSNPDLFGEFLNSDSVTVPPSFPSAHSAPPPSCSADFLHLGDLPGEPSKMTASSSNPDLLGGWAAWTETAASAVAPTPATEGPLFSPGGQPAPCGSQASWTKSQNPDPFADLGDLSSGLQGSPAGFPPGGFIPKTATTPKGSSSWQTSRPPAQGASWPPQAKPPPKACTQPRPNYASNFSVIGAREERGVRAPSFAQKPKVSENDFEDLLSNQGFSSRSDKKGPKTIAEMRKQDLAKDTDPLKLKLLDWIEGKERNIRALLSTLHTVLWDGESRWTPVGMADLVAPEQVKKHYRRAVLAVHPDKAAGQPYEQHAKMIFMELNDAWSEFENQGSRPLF

N#CC1(c2ccccn2)CCN(Cc2cc(C(=O)N3CCCC3)c(=O)n3ccccc23)CC1
inactive: residual activity [1] 100% | residual activity [2] 92% | residual activity [3] 85% | residual activity [4] 100% | residual activity [5] 80% | residual activity [6] 85% | inhibition [7] 46.5% | residual activity [8] 100% | inhibition [9] 26.7% | residual activity [10] 90% | residual activity [11] 98% | residual activity [12] 100% | residual activity [13] 97% | residual activity [14] 82% | residual activity [15] 99% | residual activity [16] 100% | residual activity [17] 88% | residual activity [18] 100% | residual activity [19] 95% | residual activity [20] 95% | residual activity [21] 100% | inhibition [22] -5.76% | residual activity [23] 77% | residual activity [24] 100% | residual activity [25] 90% | residual activity [26] 84% | residual activity [27] 87% | residual activity [28] 100% | residual activity [29] 87% | residual activity [30] 96% | residual activity [31] 100% | residual activity [32] 54% | residual activity [33] 90% | residual activity [34] 100% | residual activity [35] 85%

N#CC1(c2ccccn2)CCN(Cc2cc(C(=O)O)c(=O)n3ccccc23)CC1 [MSD-M1PAM]
inactive: residual activity [1] 87% | residual activity [2] 72% | residual activity [3] 80% | residual activity [4] 100% | residual activity [5] 75% | residual activity [6] 99% | inhibition [7] 7.88% | residual activity [8] 100% | inhibition [9] 21% | residual activity [10] 100% | residual activity [11] 80% | residual activity [12] 100% | residual activity [13] 84% | residual activity [14] 100% | residual activity [15] 100% | residual activity [16] 79% | residual activity [17] 100% | residual activity [18] 100% | residual activity [19] 88% | residual activity [20] 100% | residual activity [21] 91% | inhibition [22] 16.2% | residual activity [23] 80% | residual activity [24] 100% | residual activity [25] 97% | residual activity [26] 88% | residual activity [27] 87% | residual activity [28] 100% | residual activity [29] 77% | residual activity [30] 82% | residual activity [31] 100% | residual activity [32] 92% | residual activity [33] 92% | residual activity [34] 100% | residual activity [35] 100%

From ChEMBL document CHEMBL4507295 (2021)
